In one test the target is T1, serotonin transporter (Rattus norvegicus, UniProt P31652).
T1 construct: Cerebral cortices from male Wistar rats (150-200 g) are homogenized; from tissue; host or cells: rat cerebral cortex synaptosomes (P2 pellet)
Briefly: In vitro inhibition of 3H-5-hydroxytryptamine uptake in cortical synaptosomes. It counts as biochemical. As to conditions: 1 nM 3H-5-HT, 30 minutes at 37° C. The procedure: In vitro Inhibition of ^3H-5-Hydroxytryptamine Uptake in Cortical Synaptosomes
Serotonin transporters/uptake sites on nerve terminals presumably function to terminate neuronal signaling by removing serotonin from the synaptic cleft. The activity of the serotonin transporter integral protein can be measured in vitro by synaptosomal uptake of ^3H-5-hydroxytryptamine (5-HT, serotonin).
Preparations are performed at 0-4° C. Cerebral cortices from male Wistar rats (150-200 g) are homogenized for 5-10 seconds in 100 volumes of ice-cold 0.32 M sucrose containing 1 mM pargyline, using a motor driven teflon pestle in a glass homogenizing vessel. Monoamine oxidase activity is inhibited in the presence of pargyline.
The homogenate is subjected to centrifugation at 1000×g for 10 minutes. The resulting supernatant is then centrifuged at 27,000×g for 50 minutes and the supernatant is discarded. The pellet (P2) is re-suspended in oxygenated (equilibrated with an atmosphere of 96% O2: 4% CO2 for at least 30 minutes) Krebs-Ringer incubation buffer (1000 ml per g of original tissue) at pH 7.2 containing 122 mM NaCl, 0.16 mM EDTA, 4.8 mM KCl, 12.7 mM Na2HPO4, 3.0 mM NaH2PO4, 1.2 mM MgSO4, 1 mM CaCl2, 10 mM glucose and 1 mM ascorbic acid.
Aliquots of 4.0 ml tissue suspension are added to 100 μl, of test solution and 100 μl of ^3H-5-HT (1 nM, final concentration), mixed and incubated for 30 minutes at 37° C. Non-specific uptake is determined using Citalopram (1 μM, final concentration, available from Lundbeck, Denmark).
After incubation, the samples are poured directly onto Whatman GF/C glass fibre filters under suction. The filters are washed three times with 5 ml of ice-cold 0.9% (w/v) NaCl solution.
The amount of radioactivity on the filters is determined by conventional liquid scintillation counting. Specific uptake is calculated as the difference between total uptake and non-specific uptake.
25-75% inhibition of specific binding must be obtained, before calculation of an IC50.
The test value is given as IC50 (the concentration (μM) of the test substance which inhibits the specific binding of ^3H-5-HT by 50%).

For test [1], the target named is T2, α7-subtype of nicotinic receptors (Rattus norvegicus, UniProt Q05941).
T2 construct: Cerebral cortices from male Wistar rats (150-250 g) are homogenised; from tissue; host or cells: rat cerebral cortex membrane homogenate
T2 sequence (Q05941 23-502): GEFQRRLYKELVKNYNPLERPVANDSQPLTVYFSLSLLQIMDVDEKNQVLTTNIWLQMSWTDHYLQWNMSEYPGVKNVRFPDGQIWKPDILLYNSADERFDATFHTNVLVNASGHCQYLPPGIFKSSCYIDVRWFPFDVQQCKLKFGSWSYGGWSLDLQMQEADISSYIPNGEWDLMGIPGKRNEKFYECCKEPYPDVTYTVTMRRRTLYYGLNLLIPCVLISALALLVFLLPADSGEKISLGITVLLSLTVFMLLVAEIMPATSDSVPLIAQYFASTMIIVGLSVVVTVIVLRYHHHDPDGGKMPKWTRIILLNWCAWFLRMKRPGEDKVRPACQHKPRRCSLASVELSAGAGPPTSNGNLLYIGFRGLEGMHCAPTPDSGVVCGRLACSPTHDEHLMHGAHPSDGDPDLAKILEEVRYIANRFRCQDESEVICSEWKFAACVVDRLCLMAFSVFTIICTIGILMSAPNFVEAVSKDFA
Briefly: In vitro inhibition of 3H-α-bungarotoxine binding in rat brain.

Where [2] appears, read: rat cerebral cortex homogenate, 2 nM 3H-α-bungarotoxine, 2 hours at 37° C., read-out: Inhibition of 3H-α-Bungarotoxine Binding IC50.

Where a name gives a salt, the structure may show the parent alone. Read-outs that look alike come from different tables or passages of the source.

As a reminder, the IC50 is the concentration at which inhibition is half-maximal.

T1 sequence (P31652 whole entry): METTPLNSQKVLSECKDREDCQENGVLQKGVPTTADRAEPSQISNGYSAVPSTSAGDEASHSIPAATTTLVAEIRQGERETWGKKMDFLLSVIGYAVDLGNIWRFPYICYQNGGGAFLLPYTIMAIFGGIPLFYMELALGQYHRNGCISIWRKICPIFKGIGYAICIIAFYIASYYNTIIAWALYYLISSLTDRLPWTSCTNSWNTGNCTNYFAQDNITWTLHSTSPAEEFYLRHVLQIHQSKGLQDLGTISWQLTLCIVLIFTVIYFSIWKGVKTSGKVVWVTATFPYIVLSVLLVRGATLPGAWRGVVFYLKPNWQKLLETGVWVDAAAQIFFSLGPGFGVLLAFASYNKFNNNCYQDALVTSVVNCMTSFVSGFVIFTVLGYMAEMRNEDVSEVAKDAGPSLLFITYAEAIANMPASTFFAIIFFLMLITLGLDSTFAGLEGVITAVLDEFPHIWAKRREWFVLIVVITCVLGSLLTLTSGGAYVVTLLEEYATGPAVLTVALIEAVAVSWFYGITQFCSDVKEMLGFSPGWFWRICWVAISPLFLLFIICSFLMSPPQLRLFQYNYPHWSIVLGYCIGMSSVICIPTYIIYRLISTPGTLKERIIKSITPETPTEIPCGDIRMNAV

Regarding `C(#Cc1ccccc1)C1=CN2CCC1CC2` [Compound A1, (±)-3-Phenyletynyl-quinuclidin-2-ene], the IC50 was 420 nM on serotonin transporter and 180 nM in test [1] (setting [2]).
The molecule `C(#Cc1ccccc1)C1=CC2CCC(C1)N2` (racemic) [Compound C1, (±)-8-H-3-Phenyletynyl-8-azabicyclo[3.2.1]oct-2-ene fumaric acid salt] displayed a half-inhibitory concentration (IC50) on serotonin transporter of 99 nM.
In the case of `CN1C2C=C(C#Cc3ccccc3)CC1CC2` (racemic) [Compound 1, (±)-8-Methyl-3-phenyletynyl-8-azabicyclo[3.2.1]oct-2-ene fumaric acid salt], the IC50 against serotonin transporter came out at 110 nM; in test [1] it was 320 nM.
Take `C[N+]1(C)C2C=C(C#Cc3ccccc3)CC1CC2` (racemic) [Compound B1, (±)-8,8-Dimethyl-3-phenyletynyl-8-azabicyclo[3.2.1]oct-2-ene iodide salt]: in test [1] (setting [2]), the IC50 was determined as 2 nM.
Take `C[N+]12C=C(C#Cc3ccccc3)C(CC1)CC2` (racemic) [Compound B2, (±)-1-Methyl-3-phenyletynyl-quinuclidin-2-ene iodide salt]: the IC50 against serotonin transporter came out at 100 nM; in test [1] (setting [2]) it was 600 nM.

The values are drawn from US7667040B2, “Azacyclic ethynyl derivatives” (Neurosearch A/S, priority 2002, dated 2010).
